Laboratory results reported in PubChem BioAssay AID248 (DTP/NCI, 2004).
Inconclusive results and toxic doses are left out. Rule as the data show it: active = T/C of 150% or more; inactive = T/C below 125%. Square brackets hold non-standard residues; d marks the D form. Peptide text beside a SMILES is read from it. * marks the point of attachment. Cbz = O=C(OCc1ccccc1)*; Abu = CC[CH](N)C(=O)O; OBn = c1ccc(CO*)cc1

Tested on: L1210 leukemia ip in BDF1 mice, survival T/C
Test: NCI In Vivo Anticancer Drug Screen. Data for tumor model L1210 Leukemia (intraperitoneal) in B6D2F1 (BDF1) mice
Conditions: endpoint: mean survival time, higher = longer survival
In short: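 Read-out is survival time, reported as the treated-group measurement over the vehicle-control measurement.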

[1] = dose: 100.0 mg/kg/injection, schedule: Q04DX003 (ip), vehicle: saline
[2] = dose: 200.0 mg/kg/injection, schedule: Q04DX003 (ip), vehicle: saline
[3] = dose: 400.0 mg/kg/injection, schedule: Q04DX003 (ip), vehicle: saline
[4] = dose: 75.0 mg/kg/injection, schedule: Q01DX001 (ip), vehicle: saline
[5] = dose: 150.0 mg/kg/injection, schedule: Q01DX001 (ip), vehicle: saline
[6] = dose: 100.0 mg/kg/injection, schedule: Q01DX009 (ip), vehicle: saline with Tween-80
[7] = dose: 100.0 mg/kg/injection, schedule: Q04DX003 (ip), vehicle: saline with Tween-80
[8] = dose: 200.0 mg/kg/injection, schedule: Q01DX009 (ip), vehicle: saline with Tween-80
[9] = dose: 200.0 mg/kg/injection, schedule: Q04DX003 (ip), vehicle: saline with Tween-80
[10] = dose: 400.0 mg/kg/injection, schedule: Q01DX009 (ip), vehicle: saline with Tween-80
[11] = dose: 400.0 mg/kg/injection, schedule: Q04DX003 (ip), vehicle: saline with Tween-80
[12] = dose: 100.0 mg/kg/injection, schedule: Q01DX001 (ip), vehicle: Klucel (hydroxypropylcellulose) (HPC)
[13] = dose: 200.0 mg/kg/injection, schedule: Q01DX001 (ip), vehicle: Klucel (hydroxypropylcellulose) (HPC)
[14] = dose: 400.0 mg/kg/injection, schedule: Q01DX001 (ip), vehicle: Klucel (hydroxypropylcellulose) (HPC)
[15] = dose: 100.0 mg/kg/injection, schedule: Q01DX001 (ip), vehicle: carboxymethylcellulose (CMC)

Measured: T/C

CCOC(=O)CCCc1ccc(N/N=N/c2nc[nH]c2C(N)=O)cc1
inactive: dose: 25.0 mg/kg/injection, schedule: Q01DX Z (ip), vehicle: carboxymethylcellulose (CMC) 94 % of control | dose: 50.0 mg/kg/injection, schedule: Q01DX Z (ip), vehicle: carboxymethylcellulose (CMC) 88 % of control | dose: 75.0 mg/kg/injection, schedule: Q01DX Z (ip), vehicle: carboxymethylcellulose (CMC) 88 % of control | dose: 100.0 mg/kg/injection, schedule: Q01DX Z (ip), vehicle: carboxymethylcellulose (CMC) 103 % of control | dose: 200.0 mg/kg/injection, schedule: Q01DX Z (ip), vehicle: carboxymethylcellulose (CMC) 88 % of control

COC1OC(CCl)C(Cl)CC1OC(C)=O (stereo not given)
inactive: [1] 95 % of control | [2] 90 % of control | [3] 98 % of control

CCC[CH2][Sn]([Br])([c]1ccccc1)[c]1ccccc1
inactive: dose: 0.39 mg/kg/injection, schedule: Q01DX009 (ip), vehicle: saline with Tween-80 92 % of control | dose: 0.78 mg/kg/injection, schedule: Q01DX009 (ip), vehicle: saline with Tween-80 101 % of control | dose: 1.56 mg/kg/injection, schedule: Q01DX009 (ip), vehicle: saline with Tween-80 89 % of control

O=C1c2ccccc2C(=O)c2c(O)c(Cc3ccccc3)cc(O)c21
inactive: [1] 105 % of control | [2] 97 % of control | [3] 97 % of control

OC12CC[N+](Cc3ccccc3)(CC1)CC2
inactive: [4] 104 % of control | [5] 100 % of control

O=C(Nc1ccc(N=C(NC2CCCCC2)c2ccccc2)cc1)c1ccc(C(=O)Nc2ccc(N=C(NC3CCCCC3)c3ccccc3)cc2)cc1
inactive: dose: 15.0 mg/kg/injection, schedule: Q01DX Z (ip), vehicle: carboxymethylcellulose (CMC) 101 % of control | dose: 30.0 mg/kg/injection, schedule: Q01DX Z (ip), vehicle: carboxymethylcellulose (CMC) 97 % of control | dose: 60.0 mg/kg/injection, schedule: Q01DX Z (ip), vehicle: carboxymethylcellulose (CMC) 101 % of control | dose: 120.0 mg/kg/injection, schedule: Q01DX Z (ip), vehicle: carboxymethylcellulose (CMC) 97 % of control

C(=C1c2ccccc2-c2ccccc21)c1ccccc1
inactive: [6] 100 % of control | [7] 100 % of control | [8] 95 % of control | [9] 100 % of control | [10] 91 % of control | [11] 92 % of control

CC(O)CCc1ccccc1 (stereo not given)
inactive: [6] 100 % of control | [8] 89 % of control | [10] 88 % of control

N=C(N=C(Cc1ccccc1)c1ccccc1)c1ccccc1
inactive: [12] 92 % of control | dose: 100.0 mg/kg/injection, schedule: Q04DX003 (ip), vehicle: Klucel (hydroxypropylcellulose) (HPC) 104 % of control | [13] 92 % of control | dose: 200.0 mg/kg/injection, schedule: Q04DX003 (ip), vehicle: Klucel (hydroxypropylcellulose) (HPC) 96 % of control | [14] 94 % of control | dose: 400.0 mg/kg/injection, schedule: Q04DX003 (ip), vehicle: Klucel (hydroxypropylcellulose) (HPC) 91 % of control

Nc1nc(CBr)c(CCCCc2ccccc2)c(=O)[nH]1
inactive: dose: 37.5 mg/kg/injection, schedule: Q01DX001 (ip), vehicle: saline with Tween-80 100 % of control | dose: 75.0 mg/kg/injection, schedule: Q01DX001 (ip), vehicle: saline with Tween-80 101 % of control

O=C(NO)N/N=C/C=N/NC(=O)NO
inactive: [4] 100 % of control | [5] 100 % of control | dose: 300.0 mg/kg/injection, schedule: Q01DX001 (ip), vehicle: saline 107 % of control

CCC(NC(=O)OCc1ccccc1)C(=O)NC(C(=O)OCc1ccccc1)C(C)CC (stereo not given) (Cbz-[Abu]-Ile-OBn; configuration not given here)
inactive: [7] 92 % of control | [9] 92 % of control | [11] 93 % of control

CC(=O)OC1CCC2(C)C(CCC3C(CCC(=O)O)C(C)(CC(C)C(=O)O)CCC32)C1 (stereo not given)
inactive: dose: 100.0 mg/kg/injection, schedule: Q04DX003 (sc), vehicle: steriod suspending solution 116 % of control | dose: 200.0 mg/kg/injection, schedule: Q04DX003 (sc), vehicle: steriod suspending solution 109 % of control | dose: 400.0 mg/kg/injection, schedule: Q04DX003 (sc), vehicle: steriod suspending solution 113 % of control

CCOC(=O)C[Si](C)(c1ccccc1)c1ccccc1
inactive: dose: 100.0 mg/kg/injection, schedule: Q01DX001 (ip), vehicle: saline 108 % of control | dose: 200.0 mg/kg/injection, schedule: Q01DX001 (ip), vehicle: saline 94 % of control | dose: 400.0 mg/kg/injection, schedule: Q01DX001 (ip), vehicle: saline 89 % of control

CCOC(=O)c1ccc(Nc2sc(C(=O)c3ccccc3)c(N)c2C#N)cc1
inactive: dose: 100.0 mg/kg/injection, schedule: Q04DX002 (ip), vehicle: saline with Tween-80 120 % of control | dose: 200.0 mg/kg/injection, schedule: Q04DX002 (ip), vehicle: saline with Tween-80 92 % of control | dose: 400.0 mg/kg/injection, schedule: Q04DX002 (ip), vehicle: saline with Tween-80 89 % of control

O=S(=O)(NOCCCCONS(=O)(=O)c1ccccc1)c1ccccc1
inactive: dose: 100.0 mg/kg/injection, schedule: Q01DX001 (ip), vehicle: saline with Tween-80 88 % of control | dose: 200.0 mg/kg/injection, schedule: Q01DX001 (ip), vehicle: saline with Tween-80 95 % of control | dose: 400.0 mg/kg/injection, schedule: Q01DX001 (ip), vehicle: saline with Tween-80 97 % of control

O=NC1C(Cl)C2CC1C1COCC21 (stereo not given)
inactive: [12] 97 % of control | [13] 90 % of control | [14] 89 % of control

Oc1c(-c2ccccc2)nn(O)c1-c1ccccc1
inactive: dose: 50.0 mg/kg/injection, schedule: Q01DX009 (ip), vehicle: Klucel (hydroxypropylcellulose) (HPC) 105 % of control

CN(C)P1(=O)OCC(C(C)(C)C)CO1 (stereo not given)
inactive: [1] 112 % of control

CN1CCc2cc3c(cc2C(=O)Cc2ccc4c(c2C1)OCO4)OCO3
inactive: dose: 25.0 mg/kg/injection, schedule: Q04DX003 (ip), vehicle: saline with Tween-80 103 % of control | dose: 50.0 mg/kg/injection, schedule: Q04DX003 (ip), vehicle: saline with Tween-80 97 % of control | [15] 100 % of control | [7] 102 % of control

O=[N+]([O-])c1ccc(N=Nc2ccc3c(c2)-c2ccccc2C3=P(c2ccccc2)(c2ccccc2)c2ccccc2)cc1
inactive: [15] 108 % of control | dose: 200.0 mg/kg/injection, schedule: Q01DX001 (ip), vehicle: carboxymethylcellulose (CMC) 98 % of control | dose: 400.0 mg/kg/injection, schedule: Q01DX001 (ip), vehicle: carboxymethylcellulose (CMC) 93 % of control

CCCCCC(CN(C)C)C(=O)/C=C/c1ccc(Cl)c(Cl)c1 (stereo not given)
inactive: dose: 12.5 mg/kg/injection, schedule: Q04DX003 (ip), vehicle: acetone 95 % of control | dose: 25.0 mg/kg/injection, schedule: Q04DX003 (ip), vehicle: acetone 92 % of control

O=C(O)c1ccccc1/C=C/c1ccccc1
inactive: [6] 96 % of control | [7] 104 % of control | [8] 100 % of control | [9] 101 % of control | [10] 96 % of control | [11] 101 % of control

CCCCCCCc1c(C)[nH]c2ccccc2c1=O
inactive: dose: 100.0 mg/kg/injection, schedule: Q01DX009 (ip), vehicle: Klucel (hydroxypropylcellulose) (HPC) 86 % of control | dose: 100.0 mg/kg/injection, schedule: Q04DX003 (ip), vehicle: other 98 % of control | dose: 200.0 mg/kg/injection, schedule: Q04DX003 (ip), vehicle: other 94 % of control | dose: 400.0 mg/kg/injection, schedule: Q04DX003 (ip), vehicle: other 91 % of control

N#CCCSCCc1ccccc1
inactive: dose: 75.0 mg/kg/injection, schedule: Q01DX009 (ip), vehicle: saline with Tween-80 91 % of control | dose: 150.0 mg/kg/injection, schedule: Q01DX009 (ip), vehicle: saline with Tween-80 96 % of control

Cc1nc2ccccc2c(C)c1-c1c(C)nc2ccccc2c1C
inactive: [12] 98 % of control | dose: 100.0 mg/kg/injection, schedule: Q01DX009 (ip), vehicle: saline 97 % of control | [1] 100 % of control | [13] 108 % of control | dose: 200.0 mg/kg/injection, schedule: Q01DX009 (ip), vehicle: saline 95 % of control | [2] 97 % of control | [14] 103 % of control | dose: 400.0 mg/kg/injection, schedule: Q01DX009 (ip), vehicle: saline 94 % of control | [3] 94 % of control
